One experiment is filed under the species Mus musculus. The experiment in a line: Selectivity ratio of EC50s for mouse corticotropin releasing factor receptors 1 and 2.
Experiment [1] concerns the target T1, Corticotropin-releasing factor receptor 1 (Mus musculus) (UniProt P35347).
T1 sequence (whole entry): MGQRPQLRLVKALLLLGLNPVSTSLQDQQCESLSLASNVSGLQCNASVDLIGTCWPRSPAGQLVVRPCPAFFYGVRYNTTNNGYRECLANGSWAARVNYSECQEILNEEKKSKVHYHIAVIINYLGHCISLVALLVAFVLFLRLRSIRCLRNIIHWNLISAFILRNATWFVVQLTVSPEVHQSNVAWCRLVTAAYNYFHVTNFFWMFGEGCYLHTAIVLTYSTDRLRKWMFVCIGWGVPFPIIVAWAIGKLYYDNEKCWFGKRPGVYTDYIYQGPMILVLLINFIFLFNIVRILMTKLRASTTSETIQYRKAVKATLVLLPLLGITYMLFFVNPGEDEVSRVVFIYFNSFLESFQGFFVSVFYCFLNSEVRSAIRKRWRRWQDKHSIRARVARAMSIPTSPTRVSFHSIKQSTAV
The experiment is described as follows: In vitro agonistic activity against mouse corticotropin releasing factor 1 receptor. It counts as functional.

In experiment [2] the target is T2, Corticotropin-releasing factor receptor 1 (Mus musculus, UniProt P35347).
T2 sequence (P35347 whole entry): T1 sequence (whole entry)
The experiment is described as follows: In vitro effective concentration for mouse corticotropin releasing factor 1 receptor.

Experiment [3] has as its target Corticotropin-releasing factor receptor 2 (Mus musculus, UniProt Q60748). The experiment is described as follows: In vitro effective concentration for mouse corticotropin releasing factor 2 receptor.
Experiment [4] concerns the target Corticotropin-releasing factor receptor 2 (Mus musculus) (UniProt Q60748). The experiment is described as follows: In vitro agonistic activity against mouse corticotropin releasing factor 2 receptor. It counts as functional.

Sequence of Corticotropin-releasing factor receptor 2 (Q60748 whole entry): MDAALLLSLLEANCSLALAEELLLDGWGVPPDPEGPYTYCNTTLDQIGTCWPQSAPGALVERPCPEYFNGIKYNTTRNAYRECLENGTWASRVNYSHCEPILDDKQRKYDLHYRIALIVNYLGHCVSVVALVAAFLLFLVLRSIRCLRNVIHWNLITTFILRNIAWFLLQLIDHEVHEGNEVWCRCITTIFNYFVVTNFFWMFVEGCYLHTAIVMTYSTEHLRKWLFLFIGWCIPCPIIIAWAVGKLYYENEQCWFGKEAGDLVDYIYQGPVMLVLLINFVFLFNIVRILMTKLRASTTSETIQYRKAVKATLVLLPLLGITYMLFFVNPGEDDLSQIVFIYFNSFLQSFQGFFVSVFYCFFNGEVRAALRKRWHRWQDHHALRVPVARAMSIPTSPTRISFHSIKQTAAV
Sequence of Corticotropin-releasing factor receptor 2 (Mus musculus) (Q60748 whole entry): as above

Take `CC[C@H](C)[C@H](NC(=O)[C@@H](NC(=O)[C@H](CC(=O)O)NC(=O)[C@H](CC(C)C)NC(=O)[C@H](CC(C)C)NC(=O)[C@H](CC(C)C)NC(=O)[C@H](CCCN=C(N)N)NC(=O)[C@H](CC(N)=O)NC(=O)[C@H](CC(N)=O)NC(=O)[C@H](C)NC(=O)[C@H](C)NC(=O)[C@H](CCC(N)=O)NC(=O)[C@H](CCC(N)=O)NC(=O)[C@H](CCCCN)NC(=O)[C@H](CCC(=O)O)NC(=O)[C@H](CCCCN)NC(=O)[C@H](CCC(=O)O)NC(=O)[C@H](CCC(N)=O)NC(=O)[C@H](CCCCN)NC(=O)[C@H](CCC(=O)O)NC(=O)[C@@H](NC(=O)[C@H](CCC(=O)O)NC(=O)[C@@H](NC(=O)[C@H](CCSC)NC(=O)[C@H](CCCCN)NC(=O)[C@H](CCCN=C(N)N)NC(=O)[C@H](CC(C)C)NC(=O)[C@H](CC(C)C)NC(=O)[C@@H](NC(=O)[C@@H](NC(=O)[C@@H]1CCCN1C(=O)[C@H](CC(C)C)NC(=O)[C@H](CC(=O)O)NC(=O)[C@@H](NC(=O)[C@H](CO)NC(=O)[C@@H](NC(=O)[C@@H]1CCCN1C(=O)[C@@H]1CCCN1C(=O)CNC(=O)[C@@H]1CCC(=O)N1)[C@@H](C)CC)[C@@H](C)CC)[C@@H](C)O)[C@@H](C)CC)[C@@H](C)CC)[C@@H](C)CC)[C@@H](C)O)C(=O)O`: the Selectivity in the experiment filed under Mus musculus is > 52. Further, the Emax in experiment [1] came out at 42%; in experiment [4], 94%. For the same molecule, the figures for the EC50 in experiment [2] and in experiment [3] were > 1000 nM and 19.1 nM, respectively.
For the molecule `CC[C@H](C)[C@H](NC(=O)[C@@H](NC(=O)[C@H](CC(=O)O)NC(=O)[C@H](CC(C)C)NC(=O)[C@H](CC(C)C)NC(=O)[C@H](CC(C)C)NC(=O)[C@H](CCCN=C(N)N)NC(=O)[C@H](CC(N)=O)NC(=O)[C@H](CC(N)=O)NC(=O)[C@H](C)NC(=O)[C@H](C)NC(=O)[C@H](CCC(N)=O)NC(=O)[C@H](CCC(N)=O)NC(=O)[C@H](CCCCN)NC(=O)[C@H](CCC(=O)O)NC(=O)[C@H](CCCCN)NC(=O)[C@H](CCC(=O)O)NC(=O)[C@H](CCC(N)=O)NC(=O)[C@H](CCCCN)NC(=O)[C@H](CCC(=O)O)NC(=O)[C@@H](NC(=O)[C@H](CCC(=O)O)NC(=O)[C@@H](NC(=O)[C@H](CCSC)NC(=O)[C@H](CCCCN)NC(=O)[C@H](CCCN=C(N)N)NC(=O)[C@H](CC(C)C)NC(=O)[C@H](CC(C)C)NC(=O)[C@H](Cc1c[nH]c2ccccc12)NC(=O)[C@H](Cc1ccc(O)cc1)NC(=O)[C@@H]1CCCN1C(=O)[C@H](CC(C)C)NC(=O)[C@H](CC(=O)O)NC(=O)[C@@H](NC(=O)[C@H](CO)NC(=O)[C@@H](NC(=O)[C@@H]1CCCN1C(=O)[C@@H]1CCCN1C(=O)CNC(=O)[C@@H]1CCC(=O)N1)[C@@H](C)CC)[C@@H](C)CC)[C@@H](C)CC)[C@@H](C)CC)[C@@H](C)O)C(=O)O`, the Selectivity in the experiment filed under Mus musculus stood at 47. For the same molecule, the Emax in experiment [1] and in experiment [4] was 100% each time. Also, the EC50 in experiment [2] was 187 nM; in experiment [3], 4 nM.
For `CC[C@H](C)[C@H](NC(=O)[C@@H](NC(=O)[C@H](CC(=O)O)NC(=O)[C@H](CC(C)C)NC(=O)[C@H](CC(C)C)NC(=O)[C@H](CC(C)C)NC(=O)[C@H](CCCN=C(N)N)NC(=O)[C@H](CC(N)=O)NC(=O)[C@H](CC(N)=O)NC(=O)[C@H](C)NC(=O)[C@H](C)NC(=O)[C@H](CCC(N)=O)NC(=O)[C@H](CCC(N)=O)NC(=O)[C@H](CCCCN)NC(=O)[C@H](CCC(=O)O)NC(=O)[C@H](CCCCN)NC(=O)[C@H](CCC(=O)O)NC(=O)[C@H](CCC(N)=O)NC(=O)[C@H](CCCCN)NC(=O)[C@H](CCC(=O)O)NC(=O)[C@@H](NC(=O)[C@H](CCC(=O)O)NC(=O)[C@@H](NC(=O)[C@H](CCSC)NC(=O)[C@H](CCCCN)NC(=O)[C@H](CCCN=C(N)N)NC(=O)[C@H](CC(C)C)NC(=O)[C@H](CC(C)C)NC(=O)[C@@H](NC(=O)[C@H](Cc1ccc(O)cc1)NC(=O)[C@@H]1CCCN1C(=O)[C@H](CC(C)C)NC(=O)[C@H](CC(=O)O)NC(=O)[C@@H](NC(=O)[C@H](CO)NC(=O)[C@@H](NC(=O)[C@@H]1CCCN1C(=O)[C@@H]1CCCN1C(=O)CNC(=O)[C@@H]1CCC(=O)N1)[C@@H](C)CC)[C@@H](C)CC)C(C)C)[C@@H](C)CC)[C@@H](C)CC)[C@@H](C)O)C(=O)O`, in the experiment listed under Mus musculus, the Selectivity was found to be 20. The values for the Emax in experiment [1] and in experiment [4] were 80% and 100%, respectively. Further, the EC50 was determined as 100 nM in experiment [2] and 5 nM in experiment [3].
As to `CC[C@H](C)[C@H](NC(=O)[C@@H](NC(=O)[C@H](CC(=O)O)NC(=O)[C@H](CC(C)C)NC(=O)[C@H](CC(C)C)NC(=O)[C@H](CC(C)C)NC(=O)[C@H](CCCN=C(N)N)NC(=O)[C@H](CC(N)=O)NC(=O)[C@H](CC(N)=O)NC(=O)[C@H](C)NC(=O)[C@H](C)NC(=O)[C@H](CCC(N)=O)NC(=O)[C@H](CCC(N)=O)NC(=O)[C@H](CCCCN)NC(=O)[C@H](CCC(=O)O)NC(=O)[C@H](CCCCN)NC(=O)[C@H](CCC(=O)O)NC(=O)[C@H](CCC(N)=O)NC(=O)[C@H](CCCCN)NC(=O)[C@H](CCC(=O)O)NC(=O)[C@@H](NC(=O)[C@H](CCC(=O)O)NC(=O)[C@@H](NC(=O)[C@H](CCSC)NC(=O)[C@H](CCCCN)NC(=O)[C@H](CCCN=C(N)N)NC(=O)[C@H](CC(C)C)NC(=O)[C@H](CC(C)C)NC(=O)[C@H](Cc1ccccc1)NC(=O)[C@H](CC(C)C)NC(=O)[C@@H]1CCCN1C(=O)[C@H](CC(C)C)NC(=O)[C@H](CC(=O)O)NC(=O)[C@@H](NC(=O)[C@H](CO)NC(=O)[C@@H](NC(=O)[C@@H]1CCCN1C(=O)[C@@H]1CCCN1C(=O)CNC(=O)[C@@H]1CCC(=O)N1)[C@@H](C)CC)[C@@H](C)CC)[C@@H](C)CC)[C@@H](C)CC)[C@@H](C)O)C(=O)O`, the Selectivity in the experiment listed under Mus musculus came to 10. Further, the maximum response (Emax) in experiment [1] was 93%; in experiment [4] it was 88%. The EC50 is 103 nM in experiment [2] and 10 nM in experiment [3].
Turning to `CC[C@H](C)[C@H](NC(=O)[C@@H](NC(=O)[C@H](CC(=O)O)NC(=O)[C@H](CC(C)C)NC(=O)[C@H](CC(C)C)NC(=O)[C@H](CC(C)C)NC(=O)[C@H](CCCN=C(N)N)NC(=O)[C@H](CC(N)=O)NC(=O)[C@H](CC(N)=O)NC(=O)[C@H](C)NC(=O)[C@H](C)NC(=O)[C@H](CCC(N)=O)NC(=O)[C@H](CCC(N)=O)NC(=O)[C@H](CCCCN)NC(=O)[C@H](CCC(=O)O)NC(=O)[C@H](CCCCN)NC(=O)[C@H](CCC(=O)O)NC(=O)[C@H](CCC(N)=O)NC(=O)[C@H](CCCCN)NC(=O)[C@H](CCC(=O)O)NC(=O)[C@@H](NC(=O)[C@H](CCC(=O)O)NC(=O)[C@@H](NC(=O)[C@H](CCSC)NC(=O)[C@H](CCCCN)NC(=O)[C@H](CCCN=C(N)N)NC(=O)[C@H](CC(C)C)NC(=O)[C@H](CC(C)C)NC(=O)[C@H](Cc1ccccc1)NC(=O)[C@H](Cc1ccc(O)cc1)NC(=O)[C@@H]1CCCN1C(=O)[C@H](CC(C)C)NC(=O)[C@H](CC(=O)O)NC(=O)[C@@H](NC(=O)[C@H](CO)NC(=O)[C@@H](NC(=O)[C@@H]1CCCN1C(=O)[C@@H]1CCCN1C(=O)CNC(=O)[C@@H]1CCC(=O)N1)[C@@H](C)CC)[C@@H](C)CC)[C@@H](C)CC)[C@@H](C)CC)[C@@H](C)O)C(=O)O`, in the experiment filed under Mus musculus, the Selectivity worked out at 16. For the same molecule, the Emax was 81% in experiment [1] and 98% in experiment [4].
The like results for `CC[C@H](C)[C@H](NC(=O)[C@@H](NC(=O)[C@H](CC(=O)O)NC(=O)[C@H](CC(C)C)NC(=O)[C@H](CC(C)C)NC(=O)[C@H](CC(C)C)NC(=O)[C@H](CCCN=C(N)N)NC(=O)[C@H](CC(N)=O)NC(=O)[C@H](CC(N)=O)NC(=O)[C@H](C)NC(=O)[C@H](C)NC(=O)[C@H](CCC(N)=O)NC(=O)[C@H](CCC(N)=O)NC(=O)[C@H](CCCCN)NC(=O)[C@H](CCC(=O)O)NC(=O)[C@H](CCCCN)NC(=O)[C@H](CCC(=O)O)NC(=O)[C@H](CCC(N)=O)NC(=O)[C@H](CCCCN)NC(=O)[C@H](CCC(=O)O)NC(=O)[C@@H](NC(=O)[C@H](CCC(=O)O)NC(=O)[C@@H](NC(=O)[C@H](CCSC)NC(=O)[C@H](CCCCN)NC(=O)[C@H](CCCN=C(N)N)NC(=O)[C@H](CC(C)C)NC(=O)[C@H](CC(C)C)NC(=O)[C@@H](NC(=O)[C@H](Cc1ccccc1)NC(=O)[C@@H]1CCCN1C(=O)[C@H](CC(C)C)NC(=O)[C@H](CC(=O)O)NC(=O)[C@@H](NC(=O)[C@H](CO)NC(=O)[C@@H](NC(=O)[C@@H]1CCCN1C(=O)[C@@H]1CCCN1C(=O)CNC(=O)[C@@H]1CCC(=O)N1)[C@@H](C)CC)[C@@H](C)CC)C(C)C)[C@@H](C)CC)[C@@H](C)CC)[C@@H](C)O)C(=O)O` were, in that order, 14, 81% and 91%.

A word on the Emax: it is the maximal effect, on the per cent scale that the assay sets. One may read the EC50 as the midpoint of the concentration-response curve. Read a low EC50 as higher potency in that assay.

For the origin of these results see ChEMBL document CHEMBL1139487, “Discovery of corticotropin releasing factor 2 receptor selective sauvagine analogues for treatment of skeletal muscle atrophy” (J Med Chem, 2005).
